Assay results published in PMC10579241, “Impact of trifluoromethyl and sulfonyl groups on the biological activity of novel aryl-urea derivatives: synthesis, in-vitro, in-silico and SAR studies” (Scientific Reports, 2023).
Marks after values point to notes of the source that are not given here.

How the values were obtained:
[1] = test system: Candida albicans; experiment: Agar well diffusion, C. albicans; assay type: cell-based; settings: Candida albicans, read-out: Inhibition zones diameter; for zone of inhibition at 10 µg/disc: C. albicans, reference antibiotic 10 mcg
[2] = test system: Escherichia coli; experiment: Agar well diffusion, E. coli; assay type: cell-based; settings: Escherichia coli, read-out: Inhibition zones diameter; for zone of inhibition at 10 µg/disc: E. coli, reference antibiotic 10 mcg
[3] = test system: Bacillus mycoides; experiment: microbe, parasite or virus in culture; assay type: cell-based; settings: Bacillus mycoides, read-out: Inhibition zones diameter
[4] = test system: PACA2; experiment: DNA damage, comet assay, PACA2; assay type: cell-based, human
[5] = test system: PACA2; experiment: DNA fragmentation assay, PACA2; assay type: cell-based, human
[6] = test system: osteosarcoma cell line (HOS); experiment: cells; assay type: cell-based; settings: Homo sapiens, 48 h; for IC50: MTT; for mortality at 100 µg/mL: 100 μg/mL
[7] = test system: prostate cancer (PC3); experiment: cells; assay type: cell-based; settings: Homo sapiens, 48 h, 100 μg/mL
[8] = test system: PALB2; experiment: qRT-PCR, PALB2 in PACA2 cells; assay type: cell-based, human; settings: versus negative untreated sample
[9] = test system: CDKN2A; experiment: qRT-PCR, CDKN2A in PACA2 cells; assay type: cell-based, human; settings: versus negative untreated sample
[10] = test system: colon cancer (HCT116); experiment: cells; assay type: cell-based; settings: Homo sapiens, HCT-116, 48 h, 100 μg/mL
[11] = test system: pancreatic cancer cell line (PACA2); experiment: cells; assay type: cell-based; settings: Homo sapiens, PaCa-2, 48 h; for mortality at 100 µg/mL: 100 μg/mL
[12] = test system: human lung carcinoma (A549); experiment: cells; assay type: cell-based; settings: A549, 48 h, 100 μg/mL
[13] = test system: normal skin fibroblast cell line (BJ1); experiment: cells; assay type: cell-based; settings: Homo sapiens, Skin fibroblast, MTT, 48 h
[14] = test system: hepatocellular carcinoma cell line (HePG2); experiment: cells; assay type: cell-based; settings: Homo sapiens, 100 μg/mL, 48 h
[15] = test system: skin cancer (A431); experiment: cells; assay type: cell-based; settings: Homo sapiens, A-431, 100 μg/mL, 48 h

| SMILES | zone of inhibition at 10 µg/disc [1] | zone of inhibition at 10 µg/disc [2] | zone of inhibition at 10 µg/disc [3] | IC50 [6] | mortality at 100 µg/mL [7] | zone of inhibition at 10000 µg/mL [1] | zone of inhibition at 10000 µg/mL [2] | mortality at 100 µg/mL [10] | mortality at 100 µg/mL [11] | mortality at 100 µg/mL [12] | zone of inhibition at 10000 µg/mL [3] | mortality at 100 µg/mL [14] | mortality at 100 µg/mL [6] | mortality at 100 µg/mL [15] | other results |
| --- | --- | --- | --- | --- | --- | --- | --- | --- | --- | --- | --- | --- | --- | --- | --- |
| CC1(C)S[C@@H]2[C@H](NC(=O)[C@H](N)c3ccccc3)C(=O)N2[C@H]1C(=O)O [Ampicillin, reference compound] | 14 ± 0.25 mm | 20 ± 1.05 mm | 12 ± 0.93 mm |  |  |  |  |  |  |  |  |  |  |  |  |
| Cc1ccc(NC(=O)Nc2cc(C(F)(F)F)cc(C(F)(F)F)c2)cc1 [Compound 15, 1-[3,5-Bis(trifluoromethyl)phenyl]-3-(p-tolyl)urea] |  |  |  | 37.3 ± 0.37 µM | > 75% | 24 ± 1.22 mm | 24 ± 0.68 mm | 49.6 ± 1.23% | > 75% | > 50% | 23 ± 0.35 mm |  |  |  | DNA damaged cells % (mean ± SEM) [4]: 21.00 ± 1.29^a %; Class 0 (no tail), number of cells ([4]; of 400 cells analyzed): 316; Class 1 (tail length < diameter of nucleus), number of cells ([4]; of 400 cells analyzed): 31; Class 2 (tail length between 1 and 2 × the diameter of nucleus), number of cells ([4]; of 400 cells analyzed): 25; Class 3 (tail length > 2 × the diameter of nucleus), number of cells ([4]; of 400 cells analyzed): 28; No. of cells, Comets ([4]; of 400 cells analyzed): 84; Change (DNA fragmentation versus untreated cells) [5]: 20.20; DNA fragmentation % M ± SEM ([5]; IC50 concentration, 24 h): 32.3 ± 0.74^ab %; Inhibition ([5]; doxorubicin = 0.0): 12.22; PALB2 gene expression level [8]: significantly reduced; CDKN2A gene expression level [9]: significantly reduced; IC50 ([11]; MTT): 82.5 ± 0.21 µM; IC50 [13]: 94.4 ± 0.71 µM |
| CNC(C)C1CCC(N)C(OC2C(N)CC(N)C(OC3OCC(C)(O)C(NC)C3O)C2O)O1 (stereo not drawn) [Gentamicin, reference compound] | 12 ± 0.89 mm | 12 ± 0.18 mm | 11 ± 0.43 mm |  |  |  |  |  |  |  |  |  |  |  |  |
| Cc1ccc(NC(=O)Nc2ccc(OC(F)(F)F)cc2)cc1 [Compound 14, 1-(p-Tolyl)-3-[4-(trifluoromethoxy)phenyl]urea] |  |  |  | 61.6 ± 0.81 µM | 45.3 ± 1.28% | 17 ± 0.27 mm | 17 ± 0.81 mm | 5.6 ± 0.47% | 47.2 ± 1.47% | 38.5 ± 1.41% | 15 ± 0.25 mm | 65.3 ± 1.44% | 100% | 2.3 ± 0.66% |  |
| COc1cc(NC(=O)NS(=O)(=O)c2ccc(C)cc2)cc(OC)c1 [Compound 10, N-[(3,5-Dimethoxyphenyl)carbamoyl]-4-methylbenzenesulfonamide] |  |  |  |  | 35.2 ± 0.89% | 21 ± 0.32 mm | 22 ± 0.39 mm | 37.5 ± 1.12% | > 50% | 34.2 ± 1.2% | 24 ± 0.87 mm |  | 12.3 ± 1.21% | 23.5 ± 0.97% |  |
| COc1cc(NC(=O)Nc2ccc(C)cc2)cc(OC)c1 [Compound 16, 1-[3,5-Dimethoxyphenyl]-3-(p-tolyl)urea] |  |  |  |  | 44.6 ± 0.25% | 16 ± 0.95 mm | 16 ± 0.35 mm | 5.9 ± 0.78% | > 50% | 35.9 ± 0.7% | 16 ± 0.97 mm | 34.2 ± 0.13% | > 50% | 40.3 ± 1.22% |  |
